Source: ChEMBL document CHEMBL5537165, “Hepatitis C: The Story of a Long Journey through First, Second, and Third Generation NS3/4A Peptidomimetic Inhibitors. What Did We Learn?” (J Med Chem, 2024)
*1 amine or outer side, *2 acyl side, *3 side chain or, on linkers, in order; H or OH if unused. Where a SMILES comes first, the peptide text is derived from it. Side-chain parts run from the residue outwards. [ ]: non-standard residue; d: D form. The star is where a group is joined. Tetrahydroisoquinolin(2-yl) = c1ccc2c(c1)CCN(*)C2; Pyrazinecarbonyl = O=C(c1cnccn1)*; Hyp = O=C(O)[C@@H]1C[C@@H](O)CN1; Abu = CC[C@H](N)C(=O)O; CO = O=C([*:1])[*:2]; Bn = c1ccc(C*)cc1

Experiments:
[1] = target: T1, Non-structural protein 4b (Hepacivirus hominis, UniProt F5B4I0); assay: Binding affinity to Hepatitis C virus genotype 1 NS4B assessed as inhibition constant
T1 sequence (F5B4I0 whole entry): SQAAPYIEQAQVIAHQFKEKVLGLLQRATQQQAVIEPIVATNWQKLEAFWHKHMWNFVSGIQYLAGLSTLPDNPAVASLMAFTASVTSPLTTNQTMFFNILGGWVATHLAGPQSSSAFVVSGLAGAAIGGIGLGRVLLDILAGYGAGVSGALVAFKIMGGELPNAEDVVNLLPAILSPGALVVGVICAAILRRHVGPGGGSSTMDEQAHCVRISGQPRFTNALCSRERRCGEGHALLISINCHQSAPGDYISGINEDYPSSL

SARS-CoV-2 = assay: Antiviral activity against SARS-CoV-2 infected in human Huh-7 cells assessed as reduction in viral growth; assay type: functional, organism-based; conditions: Severe acute respiratory syndrome coronavirus 2, Huh-7
[2] = target: T1, Non-structural protein 4b; assay: Binding affinity to full length Hepatitis C virus genotype 1b NS4B expressed in Escherichia coli assessed as inhibition constant
[3] = target: T1, Non-structural protein 4b; assay: Inhibition of Hepatitis C virus genotype 1b NS4B
[4] = target: T1, Non-structural protein 4b; assay: Binding affinity to Hepatitis C virus genotype 1b NS4B assessed as inhibition constant
[5] = target: T1, Non-structural protein 4b; assay: Inhibition of full length Hepatitis C virus genotype 1b NS4B expressed in Escherichia coli
[6] = target: T1, Non-structural protein 4b; assay: Binding affinity to Hepatitis C virus genotype 3a NS4B assessed as inhibition constant
[7] = Inhibition of Hepatitis C virus NS3 protease; design: species or system Hepacivirus hominis
[8] = target: T1, Non-structural protein 4b; assay: Inhibition of Hepatitis C virus genotype 3a NS4B
[9] = target: T1, Non-structural protein 4b; assay: Inhibition of Hepatitis C virus genotype 1a NS4B
[10] = Clearance in Beagle dog plasma at 0.5 mg/kg, iv and measured upto 24 hrs by LC-MS/MS analysis; assay type: ADME, organism-based, Canis lupus familiaris
[11] = Volume of distribution at steady state in Beagle dog at 0.5 mg/kg, iv and measured upto 24 hrs by LC-MS/MS analysis; assay type: ADME, organism-based, Canis lupus familiaris; conditions: in vivo, read-out: Vdss
[12] = Cmax in Sprague-Dawley rat at 3 mg/kg, po and measured upto 24 hrs by LC-MS/MS analysis; assay type: ADME, organism-based; conditions: in vivo
[13] = Cmax in Beagle dog at 3 mg/kg, po and measured upto 24 hrs by LC-MS/MS analysis; assay type: ADME, organism-based, Canis lupus familiaris; conditions: in vivo
[14] = AUC in Sprague-Dawley rat plasma […] at 10 mg/kg, po administered via gavage by LC-MS/MS analysis; assay type: ADME, organism-based; conditions: in vivo
[15] = Oral bioavailability in Beagle dog at 2 mg/kg; assay type: ADME, organism-based, Canis lupus familiaris; conditions: in vivo
[16] = Half life in Sprague-Dawley rat at 5 mg/kg, po by LC-MS/MS analysis; assay type: ADME, organism-based; conditions: in vivo
[17] = Volume of distribution at steady state in Sprague-Dawley rat at 1 mg/kg, iv; assay type: ADME, organism-based; conditions: in vivo, read-out: Vdss
[18] = Oral bioavailability in Sprague-Dawley rat; assay type: ADME, organism-based; conditions: in vivo
[19] = Clearance in Sprague-Dawley rat at 2 mg/kg, iv by LC-MS/MS analysis; assay type: ADME, organism-based; conditions: in vivo
[20] = AUC (0 to infinity) in liver to plasma of Sprague-Dawley rat at 3 mg/kg,po; assay type: ADME, organism-based; conditions: in vivo
[21] = Half life in Beagle dog at 5 mg/kg, po by LC-MS/MS analysis; assay type: ADME, organism-based, Canis lupus familiaris; conditions: in vivo
[22] = target: T1, Non-structural protein 4b; assay: Binding affinity to Hepatitis C virus genotype 1a NS4B assessed as inhibition constant
[23] = target: Replicase polyprotein 1ab (Severe acute respiratory syndrome coronavirus 2, UniProt P0DTD1); assay: Inhibition of SARS-CoV-2 3CL protease by FRET assay
[24] = AUC in Sprague-Dawley rat at 2 mg/kg, po; assay type: ADME, organism-based; conditions: in vivo

CC[C@@H](C=O)NC(=O)[C@@H]1C[C@@H](OC(=O)N2CCc3ccccc3C2)CN1C(=O)[C@@H](NC(=O)[C@@H](NC(=O)c1cnccn1)C(C)C)C(C)C (Pyrazinecarbonyl-VV[Hyp]([CO-Tetrahydroisoquinolin(2-yl)])[Abu]-aldehyde)
Ki [1]: 890 nM

COc1ccc2c(O[C@@H]3C[C@H]4C(=O)N[C@]5(P(=O)(O)Cc6c(F)cccc6F)C[C@H]5CCCCCCC[C@H](NC(=O)OC5CCCC5)C(=O)N4C3)cc(-c3csc(NC(C)C)n3)nc2c1Cl [GS-9256]
EC50 (SARS-CoV-2): 20 nM | Ki [2]: 0.089 nM

CC[C@@H]1C[C@]1(NC(=O)[C@@H]1C[C@@H]2CN1C(=O)[C@H](C(C)(C)C)NC(=O)OCC(C)(C)CCCCc1cccc3c1CN(C3)C(=O)O2)C(=O)NS(=O)(=O)C1CC1
IC50 [3]: 3 nM | Ki [4]: 0.05 nM

C=C[C@@H]1C[C@]1(NC(=O)[C@@H]1C[C@@H]2CN1C(=O)[C@H](C(C)(C)C)NC(=O)OCCC/C=C/c1ccc3ccnc(c3c1)O2)C(=O)NS(=O)(=O)C1CC1
IC50 [5]: 210 nM

C=C[C@@H]1C[C@]1(NC(=O)[C@@H]1C[C@@H]2CN1C(=O)[C@H](C(C)(C)C)NC(=O)O[C@@H]1C[C@H]1CCCCCc1nc3ccc(OC)cc3cc1O2)C(=O)NS(=O)(=O)C1CC1
Ki [2]: 0.02 nM | IC50 [5]: 13 nM | Ki [6]: 0.31 nM

CCC[C@H](NC(=O)[C@@H]1C[C@@H](OCc2cccc3ccccc23)CN1C(=O)[C@@H](NC(=O)[C@@H](NC(=O)[C@@H](CC(=O)O)NC(=O)[C@H](CC(=O)O)NC(C)=O)C1CCCCC1)C(C)C)C(=O)O
IC50 [7]: 27 nM

C=C[C@@H]1C[C@]1(NC(=O)[C@@H]1C[C@]23CCc4c(c(nc5ccc(OC)cc45)CCCCC[C@@H]4C[C@H]4OC(=O)N[C@@H](C4(C)CCCCC4)C(=O)N1C2)O3)C(=O)NS(=O)(=O)C1(C)CC1
IC50 [8]: 4.5 nM

Cc1nc2ccccc2c2c1O[C@]1(CC2)C[C@H]2C(=O)N[C@]3(C(=O)NS(=O)(=O)C4(C)CC4)C[C@H]3/C=C/CCCCC[C@H](NC(=O)OC(C)(C)C)C(=O)N2C1
IC50 [8]: 0.7 nM | IC50 [3]: 0.013 nM

CC[C@@H](C=O)NC(=O)[C@@H]1C[C@@H](OCc2ccccc2)CN1C(=O)[C@@H](NC(=O)[C@@H](NC(=O)[C@H](CC(=O)O)NC(=O)[C@H](CCC(=O)O)NC(C)=O)C(C)C)C(C)C (Ac-EDVV[Hyp](Bn)[Abu]-aldehyde)
Ki [1]: 890 nM

COc1ccc2c(O[C@@H]3C[C@H]4C(=O)N[C@]5(C(=O)O)C[C@H]5/C=C/CCCCC[C@H](NC(=O)OC(C)(C)C)C(=O)N4C3)cc(-c3ccccc3)nc2c1
IC50 [7]: 11 nM

COc1ccc2nc(C(F)(F)F)c3c(c2c1)CC[C@]1(C[C@H]2C(=O)N[C@]4(C(=O)NS(=O)(=O)C5(C)CC5)C[C@H]4/C=C/CCCCCC(NC(=O)OC(C)(C)C)C(=O)N2C1)O3 (stereo partly specified)
IC50 [8]: 0.47 nM

C=C[C@@H]1C[C@]1(NC(=O)[C@@H]1C[C@@H](Oc2cc(-c3ccccc3)nc3cc(OC)ccc23)CN1C(=O)[C@@H](NC(=O)OC1CCCC1)C(C)(C)C)C(=O)O
IC50 [5]: 14 nM

C=C[C@H]1C[C@]1(NC(=O)[C@@H]1C[C@@H]2CN1C(=O)[C@H](C(C)(C)C)NC(=O)OCCC/C=C/c1cccc3c1CN(C3)C(=O)O2)C(=O)NS(=O)(=O)C1CC1
Ki [2]: 0.05 nM | IC50 [5]: 7 nM

C=C[C@@H]1C[C@]1(NC(=O)[C@@H]1C[C@@H](Oc2nccc3ccccc23)CN1C(=O)[C@@H](NC(=O)OC(C)(C)C)C(C)(C)C)C(=O)NS(=O)(=O)C1CC1
EC50 (SARS-CoV-2): 60 nM | IC50 [9]: 7 nM

COc1ccc2nc3c(nc2c1)O[C@@H]1CC2C(=O)N[C@]4(C(=O)NS(=O)(=O)C5(C)CC5)C[C@@H]4/C=C/CCCCC[C@H](NC(=O)O[C@@H]4CCC[C@H]4CCCCC3)C(=O)N2C1 (stereo partly specified)
clearance [10]: 4.4 mL/min/kg | Vd [11]: 0.5 L/kg | Cmax [12]: 70 nM | Cmax [13]: 350 nM | AUC [14]: 20 µM·h | bioavailability [15]: 12% | half-life [16]: 3.8 h | Vd [17]: 4 L/kg | bioavailability [18]: 8% | clearance [19]: 33 mL/min/kg | AUC [20]: 2470 µM·h | half-life [21]: 2.3 h | Ki [22]: 0.005 nM | Ki [6]: 0.26 nM

COc1ccc2nc3c4c(c2c1)CC[C@]1(C[C@H]2C(=O)N[C@]5(C(=O)NS(=O)(=O)C6(C)CC6)C[C@H]5/C=C/CCCCC[C@H](NC(=O)O[C@@H]5CCC[C@H]5CCCCC3)C(=O)N2C1)O4
IC50 [23]: < 0.01 nM

C=C[C@@H]1C[C@]1(NC(=O)[C@@H]1C[C@]2(CCc3c(c(C)nc4ccccc34)O2)CN1C(=O)[C@@H](NC(=O)OC(C)(C)C)C(C)(C)C)C(=O)NS(=O)(=O)C1(C)CC1
IC50 [8]: 5.7 nM | IC50 [3]: 0.033 nM

C=C[C@@H]1C[C@]1(NC(=O)[C@@H]1C[C@@H](Oc2cc3ccccc3cn2)CN1C(=O)[C@@H](NC(=O)OCC(C)C)C(C)(C)C)C(=O)NS(=O)(=O)C1(C)CC1
IC50 [8]: 430 nM | IC50 [3]: 2.7 nM

CC[C@H](C)[C@H](NC(=O)[C@@H](CC(=O)O)NC(=O)[C@H](CC(=O)O)NC(C)=O)C(=O)N[C@H](C(=O)N1CCC[C@H]1C(=O)N[C@@H](CS)C(=O)O)C(C)C (Ac-D[dD]IVPC-OH)
IC50 [7]: 4000 nM

COc1ccc2c(O[C@@H]3C[C@H]4C(=O)N[C@]5(P(=O)(O)Cc6ccccc6)C[C@H]5CCCCCCC[C@H](NC(=O)OC5CCCC5)C(=O)N4C3)cc(-c3csc(NC(C)C)n3)nc2c1
IC50 [23]: 6 nM

C=C[C@@H]1C[C@]1(NC(=O)[C@@H]1C[C@@H](Oc2ncc(OC)c3ccccc23)CN1C(=O)[C@@H](NC(=O)OC(C)(C)C)C(C)(C)C)C(=O)NS(=O)(=O)C1CC1
EC50 (SARS-CoV-2): 19 nM | IC50 [9]: 7 nM

C=C[C@@H]1C[C@]1(NC(=O)[C@@H]1C[C@@H](Oc2cc(-c3ccccc3)nc3cc(OC)ccc23)CN1C(=O)[C@@H](NC(=O)OC(C)(C)C)C(C)(C)C)C(=O)NS(=O)(=O)C1CC1
EC50 (SARS-CoV-2): 4 nM | IC50 [9]: 1 nM

COc1ccc2c(O[C@@H]3C[C@H]4C(=O)N[C@]5(C(=O)O)C[C@H]5/C=C\CCCCC[C@H](NC(=O)OC5CCCC5)C(=O)N4C3)cc(-c3csc(NC(C)C)n3)nc2c1
IC50 [7]: 3000 nM

CC[C@@H](C=O)NC(=O)[C@@H]1C[C@@H](OCc2ccccc2)CN1C(=O)[C@@H](NC(=O)[C@@H](NC(=O)c1cnccn1)C(C)C)C(C)C (Pyrazinecarbonyl-VV[Hyp](Bn)[Abu]-aldehyde)
Ki [1]: 12000 nM

C=C[C@@H]1C[C@]1(NC(=O)[C@@H]1C[C@@H](Oc2cc(-c3ccccc3)nc3cc(OC)ccc23)CN1C(=O)[C@H](CCCCC)NC(=O)OC(C)(C)C)C(=O)O
IC50 [7]: 400 nM

Cc1cnc(C(=O)N[C@H]2CCCCC/C=C\[C@@H]3C[C@@]3(C(=O)NS(=O)(=O)C3CC3)NC(=O)[C@@H]3C[C@@H](Oc4nc5ccccc5c5ccccc45)CN3C2=O)cn1
bioavailability [15]: 41% | half-life [16]: 0.4 h | half-life [21]: 1.2 h | AUC [24]: 19 µM·h

CCC[C@H](NC(=O)[C@@H]1C[C@@H](OC(=O)N2CCc3ccccc3C2)CN1C(=O)[C@@H](NC(=O)[C@@H](NC(=O)c1cnccn1)C(C)C)C(C)C)C(=O)C(=O)NC1CC1
Ki [1]: 2300 nM

C=C[C@@H]1C[C@]1(NC(=O)[C@@H]1C[C@@H](Oc2cc(-c3csc(NC(C)C)n3)nc3cc(OC)ccc23)CN1C(=O)[C@@H](NC(=O)OC1CCCC1)C(C)(C)C)P(=O)(O)O
IC50 [23]: 0.9 nM

CC(C)(C)OC(=O)N[C@H]1CCCCC/C=C\[C@@H]2C[C@@]2(C(=O)NS(=O)(=O)C2CC2)NC(=O)[C@@H]2C[C@@H](OC(=O)N3Cc4cccc(F)c4C3)CN2C1=O [DANOPREVIR]
Ki [22]: 1 nM
